“Also recorded” adds a separate entry of the source.
Columns and labels:
[1] = Microsomal stability assay, human liver microsomes; format: in vitro ADME; details: for % left after 1 hr. (HLM) / half-life at 10 μM / Half-life (min) (HLM): 10 μM test compound, 0.5 mg/mL protein, 37° C.; for half-life at 10 μM: human, liver microsomes, pH 7.4, read-out: Half-life (min) (HLM); for stability in Human liver microsomes: Table 2
In short: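 Test compound at 10 μM was preincubated 5 min at 37 °C in phosphate buffer pH 7.4 with NADPH regenerating system, then started with human or mouse liver microsomes at 0.5 mg/mL protein. Samples were taken at 0–60 min and quenched in cold acetonitrile with internal standard. Slope k came from ln peak-area ratio versus time, three repeats in duplicate.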

[2] = target: T1, α6β3γ2 receptor (Rattus norvegicus, UniProt P30191+P63079); experiment: Electrophysiology in Xenopus oocytes, modulation of GABA currents; format: cell-based; details: for Emax: EC3-6 GABA currents, read-out: maximum efficacy, enhancement of the reference current; for selectivity for α6β3γ2 over other αxβ3γ2 receptors: modulation of GABA EC3 currents
T1 construct: expressed in transfected cells; host or cells: Xenopus laevis oocytes injected with subunit mRNA (3:1:5)
T1 sequence (P30191 20-453): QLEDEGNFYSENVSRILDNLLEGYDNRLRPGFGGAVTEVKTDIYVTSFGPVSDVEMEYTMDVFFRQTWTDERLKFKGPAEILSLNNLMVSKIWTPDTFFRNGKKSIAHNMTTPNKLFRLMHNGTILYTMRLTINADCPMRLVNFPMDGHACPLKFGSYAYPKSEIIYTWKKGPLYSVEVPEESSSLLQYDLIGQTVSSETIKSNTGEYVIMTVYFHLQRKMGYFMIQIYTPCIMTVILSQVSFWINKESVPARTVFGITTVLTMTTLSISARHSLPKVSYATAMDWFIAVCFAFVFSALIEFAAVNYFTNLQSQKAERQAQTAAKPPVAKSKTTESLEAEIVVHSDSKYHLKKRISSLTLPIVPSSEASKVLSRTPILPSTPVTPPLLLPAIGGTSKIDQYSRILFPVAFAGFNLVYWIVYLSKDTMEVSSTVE
T1 sequence (P63079 26-473): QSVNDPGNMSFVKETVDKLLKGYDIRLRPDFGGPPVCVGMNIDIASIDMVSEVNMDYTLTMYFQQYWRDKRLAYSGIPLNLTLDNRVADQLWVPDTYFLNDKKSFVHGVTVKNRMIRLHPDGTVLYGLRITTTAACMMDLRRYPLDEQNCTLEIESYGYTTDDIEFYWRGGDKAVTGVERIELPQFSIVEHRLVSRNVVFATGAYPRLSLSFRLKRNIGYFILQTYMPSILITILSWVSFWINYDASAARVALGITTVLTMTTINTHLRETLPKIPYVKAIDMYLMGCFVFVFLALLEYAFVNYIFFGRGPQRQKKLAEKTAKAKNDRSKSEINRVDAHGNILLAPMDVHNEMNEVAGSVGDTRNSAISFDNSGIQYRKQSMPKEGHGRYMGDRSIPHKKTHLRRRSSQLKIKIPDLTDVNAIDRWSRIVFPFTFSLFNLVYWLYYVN
T1 sequence (P18508 39-466 partner): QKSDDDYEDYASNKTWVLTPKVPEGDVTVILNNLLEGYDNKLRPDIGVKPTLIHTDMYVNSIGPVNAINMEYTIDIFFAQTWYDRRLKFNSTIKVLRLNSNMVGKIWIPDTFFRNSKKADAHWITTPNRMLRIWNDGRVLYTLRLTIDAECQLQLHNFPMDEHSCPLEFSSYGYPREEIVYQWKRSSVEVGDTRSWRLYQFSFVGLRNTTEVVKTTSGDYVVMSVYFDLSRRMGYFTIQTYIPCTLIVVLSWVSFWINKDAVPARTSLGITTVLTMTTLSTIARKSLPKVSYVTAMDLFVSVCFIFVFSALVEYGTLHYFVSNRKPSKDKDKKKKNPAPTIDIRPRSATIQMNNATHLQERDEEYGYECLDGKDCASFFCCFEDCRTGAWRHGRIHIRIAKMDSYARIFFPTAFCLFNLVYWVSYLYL
Description: Mature female Xenopus laevis (Nasco, Fort Atkinson, Wis., USA) were anaesthetized in a bath of ice-cold 0.17% Tricain (Ethyl-m-aminobenzoat, Sigma-Aldrich, St. Louis, Mo., USA) before decapitation and transfer of the frog's ovary to ND96 medium (96 mM NaCl, 2 mM KCl, 1 mM MgCl2, 5 mM HEPES; pH 7.5). Following incubation in 1 mg/mL collagenase (Sigma-Aldrich, St. Louis, Mo., USA) for 30 min, stage 5 to 6 oocytes were singled out of the ovary and defolliculated using a platinum wire loop. Oocytes were stored and incubated at 18° C. in NDE medium (96 mM NaCl, 2 mM KCl, 1 mM MgCl2, 5 mM HEPES, 1.8 mM CaCl2; pH 7.5) that was supplemented with 100 U per mL-1 penicillin, 100 μg per mL-1 streptomycin and 2.5 mM pyruvate. Oocytes were injected with an aqueous solution of mRNA. A total of 2.5 ng of mRNA per oocyte was injected. Subunit ratio was 1:1:5 for αxβγ2 (x=1, 2, 3, 5) and 3:1:5 for α4/6β3γ2 and αβδ receptors. Injected oocytes were incubated for at least 36 h before electrophysiological recordings. Oocytes were placed on a nylon-grid in a bath of NDE medium. For current measurements, the oocytes were impaled with two microelectrodes (2-3MΩ), which were filled with 2 M KCl. The oocytes were constantly washed by a flow of 6 mL per min-1 NDE that could be switched to NDE containing GABA and/or drugs. Drugs were diluted into NDE from DMSO solutions resulting in a final concentration of 0.1% DMSO. […] To test for modulation of GABA induced currents by compounds, a GABA concentration that was titrated to trigger 3-5% of the respective maximum GABA-elicited current of the individual oocyte (EC3-5) was applied to the cell together with various concentrations of tested compounds. All recordings were performed at room temperature at a holding potential of −60 mV using a Warner OC-725C TEV (Warner Instrument, Hamden, Conn., USA) or a Dagan CA-1B Oocyte Clamp or a Dagan TEV-200A TEV (Dagan Corporation, Mineapolis, Minn., USA). Data were digitized using a Digidata 1322A or 1550 data acquisition system (Axon Instruments, Union City, Calif., USA), recorded using Clampex 10.5 software (Molecular Devices, Sunnyvale, Calif., USA), and analyzed using Clampfit 10.5 and GraphPad Prism 6.0 (La Jolla, Calif., USA) software. Concentration-response data were fitted using the Hill equation. Data are given as mean±SEM from at least three oocytes of two batches.
For selected test compounds full dose response curves were recorded in α1-6β3γ2 receptors. For selected compounds, dose response curves in additional receptor subtypes (α1, 4, 6β3δ, α6β1, 2γ2, α1-6β3) were also obtained. For a wider panel of compounds, a two point screening pharmacology was obtained at 1 and 10 μM compound concentrations.

[3] = Pharmacokinetic study in rats, plasma and brain; details: for total concentration in rat brain tissue: nanoemulsion or suspension; for half-life: male, Wistar, rat, ip, 10 mg/kg
Description: Five pharmacokinetic studies have been performed; four in male Wistar rats and one in male Swiss mice. […] In a separate in vitro experiment, the rapid equilibrium dialysis assay was used to determine free fraction of DK-I-56-1 in rat plasma and brain tissue.

## COc1ccc(-n2nc3c4ccc(Br)cc4[nH]cc-3c2=O)cc1 [LAU 463, 7-Bromo-2-(4-methoxyphenyl)-2,5-dihydro-3H-pyrazolo[4,3-c]quinolin-3-one]
[1]
  % left after 1 hr. (HLM): 66.86 ± 0.13%
  half-life at 10 μM: 104 ± 4 min
[2]
  Emax: 400 to 1000%
  selectivity for α6β3γ2 over other αxβ3γ2 receptors: preferentially modulate GABA currents of α6β3γ2 receptors; also recorded: pronounced selectivity for the α6β3γ2 receptor; also recorded: (efficacy-) selective for α6β3γ2 receptors

## [2H]C([2H])([2H])Oc1ccc(-n2nc3c4ccc(OC)cc4[nH]cc-3c2=O)cc1 [DK-I-56-1, 7-Methoxy-2-(4-methoxy-d3-phenyl)-2,5-dihydro-3H-pyrazolo[4,3-c]quinolin-3-one]
[1]
  % left after 1 hr. (HLM): 91.69 ± 0.09%
  Half-life (min) (HLM): 520 ± 51 min
[3]; 10 mg/kg i.p.
  time of maximum concentration in rat brain tissue: 3 h
  total concentration in rat brain tissue: micromolar concentrations
[3]; 10 mg/kg i.p., estimated from free fraction
  free concentrations in rat brain tissue: ≥ 100 nM
[3]; brain
  half-life: ~4 h

## [2H]C([2H])([2H])Oc1ccc2c3nn(-c4ccc(OC)nc4)c(=O)c-3c[nH]c2c1 [DK-I-86-1, 7-Methoxy-d3-2-(6-methoxypyridin-3-yl)-2,5-dihydro-3H-pyrazolo[4,3-c]quinolin-3-one]
[1]
  % left after 1 hr. (HLM): 92.3 ± 0.13%
  Half-life (min) (HLM): 752.30 ± 261 min
[3]; 10 mg/kg i.p.
  total concentration in rat brain tissue: high submicromolar concentrations
[3]; in vivo
  half-life: ~9 h
[2]
  maximum efficacy compared to the lead compounds: lower
  selectivity for α6β3γ2 over other αxβ3γ2 receptors: preferentially modulates α6β3γ2 receptors; also recorded: selectivity was very good

## COc1ccc(-n2nc3c4ccc(OC)cc4[nH]cc-3c2=O)cc1 [Compound 6, 7-Methoxy-2-(4-methoxyphenyl)-2,5-dihydro-3H-pyrazolo[4,3-c]quinolin-3-one]
[1]
  % left after 1 hr. (HLM): 86.1 ± 1.0%
  stability in Human liver microsomes: 86%
  half-life at 10 μM: 212 ± 25 min
[3]; 10 mg/kg i.p.
  total concentration in rat brain tissue: high submicromolar concentrations
[2]
  Emax: 400 to 1000%
  selectivity for α6β3γ2 over other αxβ3γ2 receptors: preferentially modulate GABA currents of α6β3γ2 receptors; also recorded: pronounced selectivity for the α6β3γ2 receptor
[2]; listed as compound 6
  selectivity for α6β3γ2 over other αxβ3γ2 receptors: selectively modulates α6-containing receptors; also recorded: (efficacy-) selective for α6β3γ2 receptors

## COc1cccc(-n2nc3c4cc(Cl)ccc4[nH]cc-3c2=O)c1 [LAU 159, 8-Chloro-2-(3-methoxyphenyl)-2,5-dihydro-3H-pyrazolo[4,3-c]quinolin-3-one]
[1]
  % left after 1 hr. (HLM): 81.44 ± 0.16%
  stability in Human liver microsomes: ~80%
  half-life at 10 μM: 207 ± 15 min
[2]
  Emax: ~400%
  selectivity for α6β3γ2 over other αxβ3γ2 receptors: preferentially modulate GABA currents of α6β3γ2 receptors; also recorded: pronounced selectivity for the α6β3γ2 receptor; also recorded: (efficacy-) selective for α6β3γ2 receptors
